This is an account of results in paper PMC2852430 (Biochemistry, 2010).

Bounds are passed on as bounds.

The test system of assay [1] is cells containing human β1. To be noted: cited from earlier work.
Assay [2] relates to bovine brain tubulin (BbTb). Description: Association kinetics of ligand binding to BbTb by fluorescence. Particulars: 25°C, […] μM allocolchicine; for kf, apparent second order rate constant of the fast phase of biphasic binding to BbTb: 1 μM BbTb, 20 μM colchicinoid.
In assay [3] the test system is bovine brain tubulin (BbTb). Description: Inhibition of paclitaxel-induced tubulin assembly. It is filed as biochemical. Particulars: read-out: IC50, inhibition of Taxol-induced assembly of BbTb; 2 μM tubulin.
The test system of assay [4] is bovine brain tubulin (BbTb). Kind of assay: Equilibrium fluorescence titration of allocolchicine with BbTb. To be noted: 25°C. It is filed as binding.
Assay [5] deals with chicken erythrocyte tubulin (CeTb), ~95% βVI (Gallus gallus, UniProt P09207). Kind of assay: biochemical. It is filed as biochemical.
Chain of chicken erythrocyte tubulin (CeTb), ~95% βVI (P09207 whole entry): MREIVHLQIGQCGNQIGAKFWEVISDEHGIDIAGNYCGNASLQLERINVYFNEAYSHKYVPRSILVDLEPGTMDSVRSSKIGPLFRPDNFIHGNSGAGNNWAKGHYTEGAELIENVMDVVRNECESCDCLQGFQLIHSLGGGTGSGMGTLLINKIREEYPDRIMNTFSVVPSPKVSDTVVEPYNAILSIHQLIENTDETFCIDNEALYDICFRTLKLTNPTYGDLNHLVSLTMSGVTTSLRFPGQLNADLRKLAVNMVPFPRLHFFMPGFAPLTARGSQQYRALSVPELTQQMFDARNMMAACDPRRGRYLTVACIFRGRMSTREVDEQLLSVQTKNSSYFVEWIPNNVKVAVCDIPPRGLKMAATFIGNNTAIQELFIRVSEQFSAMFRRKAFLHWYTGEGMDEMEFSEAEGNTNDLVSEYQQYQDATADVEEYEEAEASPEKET
Chain of chicken erythrocyte tubulin (CeTb), ~95% βVI (P02552 whole entry partner): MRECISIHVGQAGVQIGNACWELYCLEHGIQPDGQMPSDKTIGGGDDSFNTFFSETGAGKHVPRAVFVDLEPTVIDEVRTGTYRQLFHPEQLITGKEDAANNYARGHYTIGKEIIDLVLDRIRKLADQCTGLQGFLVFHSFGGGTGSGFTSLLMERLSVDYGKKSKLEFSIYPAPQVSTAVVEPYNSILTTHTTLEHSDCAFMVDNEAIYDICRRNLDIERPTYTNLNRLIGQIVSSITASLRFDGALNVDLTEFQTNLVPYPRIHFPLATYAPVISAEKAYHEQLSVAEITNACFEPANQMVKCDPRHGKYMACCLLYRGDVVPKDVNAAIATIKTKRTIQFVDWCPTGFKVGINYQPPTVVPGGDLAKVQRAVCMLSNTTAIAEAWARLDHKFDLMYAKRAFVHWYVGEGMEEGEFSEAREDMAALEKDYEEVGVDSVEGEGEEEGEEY

For the molecule `COc1cc2c(cc1O)CC[C@@H]1[C@@H]2CC[C@]2(C)[C@@H](O)CC[C@@H]12` [2-methoxyestradiol], in assay [1], the “Sensitivity of cells containing human β1 to ligand” value is “insensitive”.
What is called IC50 is the concentration that gives 50% inhibition. Consider `COC(=O)c1ccc2c(c1)[C@@H](NC(C)=O)CCc1cc(OC)c(OC)c(OC)c1-2` [Allocolchicine, allocolchicine], for which, in assay [2], the “kf, apparent second order rate constant of the fast phase of biphasic binding to BbTb” value was found to be 343 ± 7 M⁻¹ s⁻¹. In assay [2] (1 μM tubulin), the “Time for binding to BbTb to attain a plateau” value is ≤ 600 s. Besides, the IC50 in assay [3] is 0.5 µM. Further, the “Ligand concentration at which fluorescence enhancement plateaus, BbTb” value in assay [4] (1 μM BbTb) was “about 20 μM”. Besides, in assay [4] (1 μM tubulin, 10% DMSO, single site isotherm), the “Association constant (Ka) for BbTb” value worked out at 500000 M⁻¹.
Turning to `COc1cc2c(c(OC)c1OC)-c1ccc(Cl)c(=O)cc1C(NC(C)=O)CC2` (stereo not drawn) [Chlorocolchicine, 10-demethoxy-10-chlorocolchicine], the “kf, apparent second order rate constant of the fast phase of biphasic binding to BbTb” value in assay [2] is 367 ± 7 M⁻¹ s⁻¹.
Consider `COc1cc([C@@H]2c3cc4c(cc3[C@H](O)[C@H]3COC(=O)[C@H]23)OCO4)cc(OC)c1OC` [Podophyllotoxin, podophyllotoxin], for which, in assay [5], the IC50 came to 25 ± 1 µM. Besides, the “IC50 for CeTb assembly relative to IC50 for BbTb” value in assay [5] (5 μM tubulin, same experimental conditions) was “about 15 fold”.
